Experimental data as given in ChEMBL document CHEMBL3987221, “The Australian National University Dept Of Immunology Pathogen Box Compounds Screened” (2018).
The source made the active and inactive calls. How the calls were made is not given here.

Tests used:
[1] = target: T1, Ferrochelatase, mitochondrial (Homo sapiens) (UniProt P22830); conditions: at 10 µM
T1 sequence (whole entry): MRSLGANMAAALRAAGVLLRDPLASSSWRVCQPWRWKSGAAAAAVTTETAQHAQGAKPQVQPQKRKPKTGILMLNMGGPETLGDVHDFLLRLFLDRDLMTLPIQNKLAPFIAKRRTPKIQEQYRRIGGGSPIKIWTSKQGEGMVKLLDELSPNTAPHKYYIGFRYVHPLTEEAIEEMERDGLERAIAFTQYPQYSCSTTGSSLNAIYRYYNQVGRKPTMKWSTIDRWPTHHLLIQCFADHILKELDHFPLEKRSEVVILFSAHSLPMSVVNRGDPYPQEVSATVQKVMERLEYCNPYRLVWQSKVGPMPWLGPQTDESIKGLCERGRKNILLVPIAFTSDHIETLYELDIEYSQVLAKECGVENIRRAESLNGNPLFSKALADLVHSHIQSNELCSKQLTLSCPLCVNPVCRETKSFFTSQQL
Description: Compound was evaluated for the inhibition of human FECH at 10uM

[2] = target: T2, Porphobilinogen deaminase (Homo sapiens) (UniProt P08397); conditions: at 100 µM
T2 sequence (whole entry): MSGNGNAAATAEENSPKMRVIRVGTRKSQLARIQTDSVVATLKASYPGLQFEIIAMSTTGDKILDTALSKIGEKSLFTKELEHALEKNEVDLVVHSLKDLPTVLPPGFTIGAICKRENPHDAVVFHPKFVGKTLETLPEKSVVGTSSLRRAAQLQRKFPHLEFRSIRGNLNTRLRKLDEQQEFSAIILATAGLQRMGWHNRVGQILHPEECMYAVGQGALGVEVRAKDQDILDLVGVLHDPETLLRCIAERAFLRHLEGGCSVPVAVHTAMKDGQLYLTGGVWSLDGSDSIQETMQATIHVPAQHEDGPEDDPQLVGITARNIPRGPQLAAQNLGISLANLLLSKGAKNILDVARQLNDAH
Description: Compound was evaluated for the inhibition of human HMBS at 100uM

Compound | inhibition [1] | inhibition [2]
O=C(Nc1cccc(-c2ccc(NCCCN3CCCC3)nc2)c1)c1ccccc1 | inactive | inactive
O=C1[C@@H](Oc2ccccc2)[C@@H](c2ccc(Cl)cc2)N1CCn1cnc2c(NCc3ccccc3)ncnc21 | inactive | inactive
COc1ccc(-c2nn(C(C)C)c3ncnc(N)c23)cc1OC | inactive | inactive
CC(Oc1ccccc1)C(=O)Nc1nc(-c2ccccn2)cs1 (centres undefined) | inactive | inactive
CCc1ccccc1-n1c(C)cn2c3c(=O)n(C(C(=O)OC)C(C)C)c(=O)n(C)c3nc12 (centres undefined) | inactive | inactive
C[C@]1(COc2ccc(N3CCC(Oc4ccc(OC(F)(F)F)cc4)CC3)cc2)Cn2cc([N+](=O)[O-])nc2O1 | inactive | inactive
COc1cccc(-n2nnnc2S(C)(=O)=O)c1 | inactive | inactive
c1ccc(-c2cc(N3CCCCC3)c3ccccc3n2)nc1 | inactive | inactive
NC(=O)c1cc(Br)ccc1OCCOc1ccccc1 | inactive | inactive
O=C(Nc1ccccc1-c1nc2c(C(=O)O)cccc2o1)c1ccccc1 | inactive | inactive
Cc1ccc(S(=O)(=O)N2CCN(C(=O)c3cc(-c4ccccc4)n[nH]3)CC2)cc1 | inactive | inactive
COc1cccc(-c2cc3c(Nc4cccnc4)nccc3[nH]2)c1 | inactive | inactive
CCCCS(=O)(=O)Nc1ccc2cnn(C)c2c1 | inactive | inactive
COc1cccc2c(C)nc(N=C(N)N)nc12 | inactive | inactive
COc1ccccc1OCCCCn1c(C2CC2)nc2ccccc21 | inactive | inactive
COc1cc(NC(C)CCCN)c2ncccc2c1 (centres undefined) | inactive | inactive
COc1cccc(OCC(=O)c2ccc(Br)cc2)c1 | inactive | inactive
CS(=O)(=O)Cc1nc2ccccc2oc1=O | inactive | inactive
CCCn1c(CNc2ccccc2O)nc2ccccc21 | inactive | inactive
O=C1COCc2ccc(Br)cc2N1Cc1ccc(C(F)(F)F)cc1 | inactive | inactive
CCCCc1ccc(NC(=O)Nc2ccc(O[C@H]3CCCC[C@@H]3N(C)c3ccccc3)c(F)c2)cc1 | inactive | inactive
CC(C)(C)n1nc(-c2ccccc2)c2c(N)ncnc21 | inactive | inactive
CCC(NC(=O)c1ccccc1NC(=O)c1ccc(C)cc1)C(=O)OC (centres undefined) | inactive | inactive

Compound | inhibition [1] | inhibition [2]
O=C(Nc1nc(-c2ccccn2)cs1)c1cncn1-c1ccccc1 | inactive | inactive
CNc1snc(C)c1C(=O)NCCOc1ccc(OC)cc1 | inactive | inactive
Cc1ccc2[nH]c3c(NCCN(C)C)ncnc3c2c1 | inactive | inactive
CCOc1ccc(-c2nc(NC(=O)CS(=O)(=O)c3ccccc3)sc2C)cc1 | inactive | inactive
CC(C)n1ncc2c(C(=O)NCC(c3cccs3)N3CCOCC3)cc(-c3ccccc3)nc21 (centres undefined) | inactive | inactive
Cc1ccc2nc(C)c(-c3ccn(Cc4ccccc4)n3)n2c1 | inactive | inactive
Cc1nnc(NCc2cccc(Cl)c2)c2ccccc12 | inactive | inactive
CCCS(=O)(=O)N1CCC(CO)(Cc2ccccc2C(F)(F)F)CC1 | inactive | inactive
O=C(NCCN1CCCC1)c1cc(NCCCCN2CCC(F)(F)CC2)nc2ccc(Cl)cc12 | inactive | inactive
O=C(C1CCN(c2nnc(-n3cccc3)s2)CC1)N1CCC(Cc2ccccc2)CC1 | inactive | inactive
CNC(=O)CNc1nc(-c2ccccn2)nc2scc(-c3ccccc3)c12 | inactive | inactive
Nc1nc2cc(-c3cncc(Oc4ccc(F)cc4)c3)ccc2[nH]1 | inactive | inactive
CCCc1ccc(S(=O)(=O)Nc2ccc(CN3CCN(CC4CC4)CC3)cc2)cc1 | inactive | inactive
Nc1ncc(Br)cc1-c1nc2cc(Cl)cnc2[nH]1 | inactive | inactive
Cc1nn(C(=O)Nc2cccc(C(F)(F)F)c2)c(C)c1Sc1ncccn1 | inactive | inactive
CN(C(=O)c1cc2c(-c3cncnc3)cccc2[nH]1)c1ccccc1 | inactive | inactive
CC(C)(CN)c1nc(-c2ccc(Cl)c(O)c2)c(-c2ccnc(N)n2)[nH]1 | inactive | inactive
COCC(C)NC(=O)CSc1ncnc2sc(-c3ccccc3)cc12 (centres undefined) | inactive | inactive
Nc1nccc2ccc(-c3ccc4nccn4c3)cc12 | inactive | inactive
Cc1nn(C)c(C)c1NS(=O)(=O)c1c(Cl)cc(-c2ccnc(N3CCNCC3)c2)cc1Cl | inactive | inactive
COC(=O)c1cccc2oc(-c3cccc(OC)c3NC(=O)c3cc(-c4ccccc4)on3)nc12 | inactive | inactive
Cc1cc(Cl)ccc1NC(=O)CCc1ccc(S(=O)(=O)NCC(C)C)cc1 | inactive | inactive
CC(C)c1ncc(-c2ccncc2)c([C@H]2CC[C@H](CNC(=O)c3cccnc3)CC2)n1 | inactive | inactive

Compound | inhibition [1] | inhibition [2]
CO/C=C(/C(=O)OC)c1ccccc1Oc1cc(Oc2ccccc2C#N)ncn1 | inactive | inactive
CCOC(=O)NC(=O)c1ccsc1NC(=O)c1nc2ccccc2s1 | inactive | inactive
Cc1nc(-c2ccccn2)nc(N2CCC(Cc3ccccc3)C2)c1Cl (centres undefined) | inactive | inactive
O[C@@H](c1cc(C(F)(F)F)nc2c(C(F)(F)F)cccc12)[C@H]1CCCCN1 | inactive | inactive
CNC(=O)C1Cc2ccccc2N1C(=O)Cc1ccc(F)cc1 (centres undefined) | inactive | inactive
O=C(NCc1ccoc1)N1CCN(Cc2ccc3c(c2)OCO3)CC1 | inactive | inactive
O=S(=O)(c1ccc(Cl)cc1)N1CCN(C(=S)NCc2ccco2)CC1 | inactive | inactive
Clc1ccc(Cl)c(CO[C@H]2CCCC[C@@H]2n2ccnc2)c1 | inactive | inactive
Cn1c(=O)c2c(S(C)(=O)=O)snc2n(C)c1=O | inactive | inactive
COC(=O)c1ccc(F)cc1NS(=O)(=O)c1cccc(-c2cnn(Cc3ccccc3)c2)c1 | inactive | inactive
O=C(c1ccc(NCCO)cc1)C1C[C@H]1c1ccc(Cl)cc1 (some centres undefined) | inactive | inactive
Cc1ccccc1CN1CCC(O)(c2ccc(Cl)c(C(F)(F)F)c2)CC1 | inactive | inactive
Cc1cc2ccccc2n1CC(=O)N1CC(C(=O)N2CCCCC2)Oc2ccccc21 (centres undefined) | inactive | inactive
O=C(Nc1cccnc1)c1c(O)c2cccc3c2n(c1=O)CC3 | inactive | inactive
O=C(NC1CC1)c1ccc(N2CCC(Cc3ccccc3)CC2)nc1 | inactive | inactive
CS(=O)(=O)c1ccc(C(=O)N(CC2CCCO2)c2nc3ccccc3s2)cc1[N+](=O)[O-] (centres undefined) | inactive | inactive
CO[C@@H]1CN(c2ccc(C#CC3(O)CN4CCC3CC4)c(Cc3ccccc3)n2)C[C@H]1O (some centres undefined) | inactive | inactive
CNC(=O)c1nn(C)c2c1C(C)(C)Cc1cnc(Nc3ccc(N4CCN(C)CC4)cc3)nc1-2 | inactive | inactive
CN1CCC(NCc2cccc(-c3ccc(S(=O)(=O)NCc4ccccc4)cc3)c2)CC1 | inactive | inactive
CCCCCCCCCCCCCCCCOP(=O)([O-])OCC[N+](C)(C)C | inactive | inactive
CCOc1ccccc1C(=O)Nc1cccc(-c2nc3ncccn3c2C)c1 | inactive | inactive
